In patent US12448363B2, “Kinase inhibitors” (Vidya Therapeutics, Inc., priority 2020, dated 2025):

Assays:
BTK = BTK (Homo sapiens, UniProt Q06187); assay: Assay to determine activity against BTK (EZ reader, FLPeptide); assay type: biochemical; design: purchased Carna; conditions: ATP (1 mM), BTK (2 nM), room temperature for 90 minutes
Procedure, shortened: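 Human BTK (2 nM) phosphorylated FLPeptide (1.5 uM) with 1 mM ATP in 50 mM HEPES pH7.5, 10 mM MgCl2, 2 mM DTT, 1 mM EGTA, 0.01% Brij-35, 0.05% BSA; 11-point 3-fold compound dilutions. After 90 min at room temperature, EDTA stop; conversion ratio read on EZ reader, IC50 from curve fit with free top and bottom.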

[1] = Plasma and total brain concentrations at 1 h post a single oral administration to female C57BL/6 mice; assay type: in vivo; conditions: mouse, 1 h post single oral 10 mg/kg, LC-MS/MS, read-out: Brain:plasma ratio
Procedure: Determination of Plasma and Total Brain Concentrations at 1 h Post a Single Oral Administration of Test Compound to Female C57BL/6 Mice
The appropriate amount of test article was dissolved 10% dimethylacetamide (DMA)/90% (20% hydroxypropyl-b-cyclodextrin (HP-β-CD) w/v in water to obtain a final concentration of 1 mg/mL for oral dosing. Sonication, vortex, and homogenization was used as needed. Three female C57BL/6 mice aged 7-9 weeks (20-30 grams) were dosed by oral gavage 10 mg/kg solution of the test article.
Concentrations of representative test compounds in the plasma and brain samples (using plasma and brain homogenate standard curve for all samples appropriately) were analyzed using LC-MS/MS. With respect to the brain:plasma ratio, Table 11 lists the results as follows: • “A” denotes a ratio >0.5; • “B” denotes a ratio between 0.1 and 0.5; and • “C” denotes a ratio <0.1.

BTK, sequence (Q06187 whole entry): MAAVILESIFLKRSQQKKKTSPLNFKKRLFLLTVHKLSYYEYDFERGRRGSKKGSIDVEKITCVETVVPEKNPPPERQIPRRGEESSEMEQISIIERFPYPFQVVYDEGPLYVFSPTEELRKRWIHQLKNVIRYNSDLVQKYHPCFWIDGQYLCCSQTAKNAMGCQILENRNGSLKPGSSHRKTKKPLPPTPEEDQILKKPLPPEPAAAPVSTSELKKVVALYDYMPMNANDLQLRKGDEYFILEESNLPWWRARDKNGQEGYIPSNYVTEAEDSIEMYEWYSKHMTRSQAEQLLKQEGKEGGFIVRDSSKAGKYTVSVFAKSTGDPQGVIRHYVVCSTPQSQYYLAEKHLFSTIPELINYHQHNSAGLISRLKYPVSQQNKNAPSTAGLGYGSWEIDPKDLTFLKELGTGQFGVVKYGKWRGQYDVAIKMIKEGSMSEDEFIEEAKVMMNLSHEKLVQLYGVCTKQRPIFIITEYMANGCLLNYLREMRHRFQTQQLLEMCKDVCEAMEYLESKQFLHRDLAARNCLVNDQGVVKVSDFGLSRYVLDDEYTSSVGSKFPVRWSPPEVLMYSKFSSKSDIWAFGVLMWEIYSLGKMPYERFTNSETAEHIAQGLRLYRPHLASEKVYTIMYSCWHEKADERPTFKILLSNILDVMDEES

Row | Structure (SMILES) | IC50 (BTK) | Kp at 1 h [1]
1 | C=CC(=O)N1CCC2CCN(c3c(F)cc(C(N)=O)c4[nH]c(C)c(Cl)c34)CC21 (racemic) [Compound 29, 4-(1-acryloyloctahydro-6H-pyrrolo[2,3-c]pyridin-6-yl)-3-chloro-5-fluoro-2-methyl-1H-indole-7-carboxamide] | 10 to 100 nM | 0.1 to 0.5
2 | C=CC(=O)N1CCC=C(c2c(F)cc(C(N)=O)c3[nH]c(C)c(Cl)c23)C1 [Compound 1, 4-(1-acryloyl-1,2,5,6-tetrahydropyridin-3-yl)-3-chloro-5-fluoro-2-methyl-1H-indole-7-carboxamide] | < 10 nM | < 0.1
3 | C=CC(=O)N1CCC[C@@H](c2c(F)cc(C(N)=O)c3[nH]c(C)c(Cl)c23)C1 [Compound 2a, (S)-4-(1-acryloylpiperidin-3-yl)-3-chloro-5-fluoro-2-methyl-1H-indole-7-carboxamide] | < 10 nM | 0.1 to 0.5
4 | C=CC(=O)N1CCC[C@H](c2c(F)c(F)c(C(N)=O)c3[nH]c(C)c(F)c23)C1 [Compound 6a, (R)-4-(1-acryloylpiperidin-3-yl)-3,5,6-trifluoro-2-methyl-1H-indole-7-carboxamide] | < 10 nM | 0.1 to 0.5
5 | C=CC(=O)N1CCC[C@@H](c2c(F)c(F)c(C(N)=O)c3[nH]c(C)c(F)c23)C1 [Compound 6b, (S)-4-(1-acryloylpiperidin-3-yl)-3,5,6-trifluoro-2-methyl-1H-indole-7-carboxamide] | < 10 nM | 0.1 to 0.5
6 | C=CC(=O)N1CCC[C@@H](c2c(F)c(F)c(C(N)=O)c3[nH]c(C)c(Cl)c23)C1 [Compound 16, (S)-4-(1-acryloylpiperidin-3-yl)-3-chloro-5,6-difluoro-2-methyl-1H-indole-7-carboxamide] | < 10 nM | 0.1 to 0.5
7 | CC#CC(=O)N[C@H]1C[C@@H](F)CN(c2c(F)cc(C(N)=O)c3[nH]c(C)c(Cl)c23)C1 [Compound 27, 4-((3S,5R)-3-(but-2-ynamido)-5-fluoropiperidin-1-yl)-3-chloro-5-fluoro-2-methyl-1H-indole-7-carboxamide] | < 10 nM | 0.1 to 0.5
8 | CC#CC(=O)N[C@H]1C[C@@H](F)CN(c2c(F)cc(C(N)=O)c3[nH]c(C)c(C)c23)C1 [Compound 33, 4-((3S,5R)-3-(but-2-ynamido)-5-fluoropiperidin-1-yl)-5-fluoro-2,3-dimethyl-1H-indole-7-carboxamide] | < 10 nM | < 0.1
9 | CC#CC(=O)N[C@H]1C[C@H](F)CN(c2c(F)cc(C(N)=O)c3[nH]c(C)c(C)c23)C1 [Compound 35, 4-((3S,5S)-3-(but-2-ynamido)-5-fluoropiperidin-1-yl)-5-fluoro-2,3-dimethyl-1H-indole-7-carboxamide] | < 10 nM | < 0.1
10 | CC#CC(=O)N1CCCC2CN(c3c(F)cc(C(N)=O)c4[nH]c(C)c(Cl)c34)CC21 (stereo not shown) [Compound 40, 4-(1-(but-2-ynoyl)octahydro-6H-pyrrolo[3,4-b]pyridin-6-yl)-3-chloro-5-fluoro-2-methyl-1H-indole-7-carboxamide] | < 10 nM | > 0.5

Further lines, results first:

Row | IC50 (BTK) | Kp at 1 h [1] | Structure (SMILES)
11 | < 10 nM | 0.1 to 0.5 | C=CC(=O)N1CCc2c(-c3c(F)cc(C(N)=O)c4[nH]c(C)c(Cl)c34)cccc2C1C (racemic) [Compound 22a, 4-(2-acryloyl-1-methyl-1,2,3,4-tetrahydroisoquinolin-5-yl)-3-chloro-5-fluoro-2-methyl-1H-indole-7-carboxamide]
12 | < 10 nM | 0.1 to 0.5 | C=CC(=O)N1CCc2c(cccc2-c2c(F)cc(C(N)=O)c3[nH]c(C)c(Cl)c23)C1 (single isomer, unassigned) [Compound 20b]
13 | 10 to 100 nM | 0.1 to 0.5 | C=CC(=O)N1CCC2CCN(c3c(F)cc(C(N)=O)c4[nH]c(C)c(Cl)c34)CC21 (single isomer, unassigned) [Compound 29a, 4-(1-acryloyloctahydro-6H-pyrrolo[2,3-c]pyridin-6-yl)-3-chloro-5-fluoro-2-methyl-1H-indole-7-carboxamide]
14 | 10 to 100 nM | < 0.1 | C=CC(=O)N1CCC2CCN(c3c(F)cc(C(N)=O)c4[nH]c(C)c(C)c34)CC21 (single isomer, unassigned) [Compound 32b, 4-(1-acryloyloctahydro-6H-pyrrolo[2,3-c]pyridin-6-yl)-5-fluoro-2,3-dimethyl-1H-indole-7-carboxamide]
